Consider one compound from patent US8586598B2, “CDK inhibitor salts” (Nerviano Medical Sciences S.R.L., priority 2009, dated 2013).

≈ marks a conversion by molar mass, not a printed value. Like-named read-outs stand apart in the source and are kept apart here.

What is called solubility is how much of the substance goes into solution per volume.

A short description of data set [1]: Solubility of compound 125 salts and free base (96-well plate, shaken at RT 30 minutes, filtered, HPLC). The settings on record: thermodynamic from solid. Type of data set: physicochemical.
Data set [2] in a line: Solubility (no method given). In kind it is physicochemical.

Consider `CNC(=O)c1nn(C)c2c1C(C)(C)Cc1cnc(Nc3ccc(N4CCN(C)CC4)cc3)nc1-2` [compound 125, 8-[4-(4-methyl-piperazin-1-yl)-phenylamino]-1,4,4-trimethyl-4,5-dihydro-1H-pyrazolo[4,3-h]quinazoline-3-carboxylic acid methylamide], for which the solubility at 30 min is 800 µg/mL in data set [1] (10% polysorbate 80 in 5% glucose solution, aqueous with cosolvent or surfactant or cyclodextrin); 7200 µg/mL in data set [1] (50% polyethylene glycol 400 in 5% glucose solution, aqueous with cosolvent or surfactant or cyclodextrin, read-out: solubility in 50% polyethylene glycol 400 in 5% glucose solution); less than 100 µg/mL in data set [1] (saline or isotonic, 5% glucose solution, RT, 30 minutes, read-out: solubility in 5% glucose solution); 10000 µg/mL in data set [1] (formulated as hydrochloride in situ salt, read-out: solubility when formulated as hydrochloride in situ salt). Also, the solubility was less than 100 µg/mL in data set [2] (5% dextrose solution, saline or isotonic, read-out: solubility in 5% dextrose solution); no less than 10000 µg/mL in data set [2] (HCl in situ salt formulation, formulated as HCl in situ salt, read-out: solubility when formulated as HCl in situ salt); roughly 800 µg/mL (≈ 1740 µM) in data set [2] (aqueous 10% Polysorbate 80, aqueous with cosolvent or surfactant or cyclodextrin); roughly 8000 µg/mL (≈ 17400 µM) in data set [2] (aqueous 50% Polyethylene Glycol 400, aqueous with cosolvent or surfactant or cyclodextrin, read-out: solubility in aqueous 50% Polyethylene Glycol 400); less than 100 µg/mL in data set [2] (water, read-out: aqueous solubility).
